Where two headings read alike, the source gives them in different places.
Experiments:
[1] = biological target: human 5-HT6 receptor (Homo sapiens (Human), UniProt P50406); test: radioligand binding assay (SPA format), [N-methyl-3H]-LSD; settings: read-out: human 5HT6 Ki, human 5-HT6 receptor membranes, 10 nM [3H]-LSD
Chain of human 5-HT6 receptor (P50406 whole entry): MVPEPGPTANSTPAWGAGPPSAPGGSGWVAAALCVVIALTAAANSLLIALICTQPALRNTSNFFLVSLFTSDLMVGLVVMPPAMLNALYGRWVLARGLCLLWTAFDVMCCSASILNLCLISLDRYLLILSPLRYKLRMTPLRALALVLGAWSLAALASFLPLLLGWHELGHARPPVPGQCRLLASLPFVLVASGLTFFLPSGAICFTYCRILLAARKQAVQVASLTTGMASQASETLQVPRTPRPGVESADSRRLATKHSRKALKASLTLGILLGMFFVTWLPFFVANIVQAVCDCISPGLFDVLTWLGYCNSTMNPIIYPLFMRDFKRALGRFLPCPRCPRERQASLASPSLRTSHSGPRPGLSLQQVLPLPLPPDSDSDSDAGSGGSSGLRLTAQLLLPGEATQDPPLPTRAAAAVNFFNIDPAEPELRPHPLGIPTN

Row | Structure (SMILES) | Ki [1] | melting point | Ki ([1]; hydrochloride)
1 | Cl.Cn1c2c(c3cc(S(=O)(=O)c4ccc(F)cc4)ccc31)C1CCC(C2)N1 (centres unmarked) [Example 28, 2-(4-Fluorophenyl)sulfonyl-5-methyl-5,6,7,8,9,10-hexahydro-7,10-epiminocyclohepta[b]indole hydrochloride] | 60 nM | 210 to 214 °C | 
2 | Cl.Cn1c2c(c3cc(S(=O)(=O)c4ccc(C#N)cc4)ccc31)C1CCC(C2)N1 (centres unmarked) [Example 30, 2-(4-Cyanophenyl)sulfonyl-5-methyl-5,6,7,8,9,10-hexahydro-7,10-epiminocyclohepta[b]indole hydrochloride] |  | 216 to 218 °C | 410 nM
3 | COc1ccc(S(=O)(=O)c2ccc3c(c2)c2c(n3C)CC3CCC2N3)cc1.Cl (centres unmarked) [Example 31, 2-(4-Methoxyphenyl)sulfonyl-5-methyl-5,6,7,8,9,10-hexahydro-7,10-epiminocyclohepta[b]indole hydrochloride] | 44 nM | 210 to 212 °C | 
4 | Cl.Cn1c2c(c3cc(S(=O)(=O)c4ccc(O)cc4)ccc31)C1CCC(C2)N1 (centres unmarked) [Example 32, 2-(4-Hydroxyphenyl)sulfonyl-5-methyl-5,6,7,8,9,10-hexahydro-7,10-epiminocyclohepta[b]indole hydrochloride] | 11 nM | 210 to 212 °C | 
5 | Cl.Cn1c2c(c3cc(S(=O)(=O)c4cccc(F)c4)ccc31)C1CCC(C2)N1 (centres unmarked) [Example 35, 2-(3-Fluorophenyl)sulfonyl-5-methyl-5,6,7,8,9,10-hexahydro-7,10-epiminocyclohepta[b]indole hydrochloride] | 4.2 nM | 240 to 245 °C | 
6 | Cc1cccc(S(=O)(=O)c2ccc3c(c2)c2c(n3C)CC3CCC2N3)c1.Cl (centres unmarked) [Example 37, 2-(3-Methylphenyl)sulfonyl-5-methyl-5,6,7,8,9,10-hexahydro-7,10-epiminocyclohepta[b]indole hydrochloride] | 3.7 nM | 194 to 196 °C | 
7 | Cl.Cn1c2c(c3cc(S(=O)(=O)c4cccc(OC(F)F)c4)ccc31)C1CCC(C2)N1 (centres unmarked) [Example 40, 2-(3-Difluoromethoxyphenyl)sulfonyl-5-methyl-5,6,7,8,9,10-hexahydro-7,10-epiminocyclohepta[b]indole hydrochloride] | 5.8 nM | 186 to 190 °C (dec.) | 
8 | COc1cccc(S(=O)(=O)c2ccc3c(c2)c2c(n3C)CC3CCC2N3)c1.Cl (centres unmarked) [Example 41, 2-(3-Methoxyphenyl)sulfonyl-5-methyl-5,6,7,8,9,10-hexahydro-7,10-epiminocyclohepta[b]indole hydrochloride] | 17 nM | 186 to 190 °C | 
9 | Cl.Cn1c2c(c3cc(S(=O)(=O)c4cccc(O)c4)ccc31)C1CCC(C2)N1 (centres unmarked) [Example 42, 2-(3-Hydroxyphenyl)sulfonyl-5-methyl-5,6,7,8,9,10-hexahydro-7,10-epiminocyclohepta[b]indole hydrochloride] | 11 nM | 208 to 212 °C | 
10 | Cl.Cn1c2c(c3cc(S(=O)(=O)c4cccc(N)c4)ccc31)C1CCC(C2)N1 (centres unmarked) [Example 44, 2-(3-Aminophenyl)sulfonyl-5-methyl-5,6,7,8,9,10-hexahydro-7,10-epiminocyclohepta[b]indole hydrochloride] | 6.3 nM | 220 to 222 °C | 
11 | CNc1cccc(S(=O)(=O)c2ccc3c(c2)c2c(n3C)CC3CCC2N3)c1.Cl (centres unmarked) [Example 46, 2-[(3-N-Methylamino)phenyl]sulfonyl-5-methyl-5,6,7,8,9,10-hexahydro-7,10-epiminocyclohepta[b]indole hydrochloride] | 6.5 nM | 208 to 212 °C (dec.) | 
12 | CC(C)Nc1cccc(S(=O)(=O)c2ccc3c(c2)c2c(n3C)CC3CCC2N3)c1.Cl (centres unmarked) [Example 47, 2-[(3-N-Isopropylamino)phenyl]sulfonyl-5-methyl-5,6,7,8,9,10-hexahydro-7,10-epiminocyclohepta[b]indole hydrochloride] | 11 nM | 208 to 212 °C (dec.) | 
13 | Cl.Cn1c2c(c3cc(S(=O)(=O)c4cccc5ccccc45)ccc31)C1CCC(C2)N1 (centres unmarked) [Example 49, 2-(1-Napthyl)sulfonyl-5-methyl-5,6,7,8,9,10-hexahydro-7,10-epiminocyclohepta[b]indole hydrochloride] | 1.4 nM | 229 to 231 °C | 
14 | Cl.Cn1c2c(c3cc(S(=O)(=O)c4ccc(Cl)cc4)ccc31)C1CCC(C2)N1 (centres unmarked) [Example 51, 2-(4-Chlorophenyl)sulfonyl-5-methyl-5,6,7,8,9,10-hexahydro-7,10-epiminocyclohepta[b]indole hydrochloride] | 37 nM | 310 to 320 °C | 
15 | Cc1ccccc1S(=O)(=O)c1ccc2c(c1)c1c(n2C)CC2CCC1N2.Cl (centres unmarked) [Example 52, 2-(2-Methylphenyl)sulfonyl-5-methyl-5,6,7,8,9,10-hexahydro-7,10-epiminocyclohepta[b]indole hydrochloride] | 11 nM | 186 to 188 °C | 
16 | Cl.Cn1c2c(c3cc(S(=O)(=O)c4cc(Cl)cc(Cl)c4)ccc31)C1CCC(C2)N1 (centres unmarked) [Example 54, 2-(3,5-Dichlorophenyl)sulfonyl-5-methyl-5,6,7,8,9,10-hexahydro-7,10-epiminocyclohepta[b]indole hydrochloride] | 10 nM | 190 to 195 °C | 

Row | Structure (SMILES) | Ki [1] | melting point | Ki ([1]; hydrochloride)
17 | Cl.Cn1c2c(c3cc(S(=O)(=O)c4cc(F)cc(F)c4)ccc31)C1CCC(C2)N1 (centres unmarked) [Example 55, 2-(3,5-Difluorophenyl)sulfonyl-5-methyl-5,6,7,8,9,10-hexahydro-7,10-epiminocyclohepta[b]indole hydrochloride] | 8.5 nM | 230 to 235 °C (dec.) | 
18 | Cl.Cn1c2c(c3cc(S(=O)(=O)c4cccc(-c5ccccc5)c4)ccc31)C1CCC(C2)N1 (centres unmarked) [Example 57, 2-[(3-Phenyl)-phenyl]sulfonyl-5-methyl-5,6,7,8,9,10-hexahydro-7,10-epiminocyclohepta[b]indole hydrochloride] |  | 230 to 235 °C (dec.) | 
19 | Cl.Cn1c2c(c3cc(S(=O)(=O)c4cncc(Cl)c4)ccc31)C1CCC(C2)N1 (centres unmarked) [Example 58, 2-[3-(5-Chloro)-pyridine]sulfonyl-5-methyl-5,6,7,8,9,10-hexahydro-7,10-epiminocyclohepta[b]indole hydrochloride] | 44 nM | 202 to 205 °C (dec.) | 
20 | Cl.Cn1c2c(c3cc(S(=O)(=O)c4cncc(F)c4)ccc31)C1CCC(C2)N1 (centres unmarked) [Example 59, 2-[3-(5-Fluoro)-pyridine]sulfonyl-5-methyl-5,6,7,8,9,10-hexahydro-7,10-epiminocyclohepta[b]indole hydrochloride] | 139 nM | 212 to 215 °C | 
21 | Cl.Cn1c2c(c3cc(S(=O)(=O)c4ccccn4)ccc31)C1CCC(C2)N1 (centres unmarked) [Example 60, 2-(2-Pyridine)sulfonyl-5-methyl-5,6,7,8,9,10-hexahydro-7,10-epiminocyclohepta[b]indole hydrochloride] | 193 nM | 222 to 225 °C | 
22 | Cl.Cn1c2c(c3cc(S(=O)(=O)c4cccnc4)ccc31)C1CCC(C2)N1 (centres unmarked) [Example 61, 2-(3-Pyridine)sulfonyl-5-methyl-5,6,7,8,9,10-hexahydro-7,10-epiminocyclohepta[b]indole hydrochloride] | 156 nM | 226 to 228 °C | 
23 | Cl.Cn1c2c(c3cc(S(=O)(=O)n4ccc5cc(F)ccc54)ccc31)C1CCC(C2)N1 (centres unmarked) [Example 63, 2-[1-(5-Fluoro)-indole]sulfonyl-5-methyl-5,6,7,8,9,10-hexahydro-7,10-epiminocyclohepta[b]indole hydrochloride] |  | 218 to 220 °C | 
24 | COc1ccc2c(ccn2S(=O)(=O)c2ccc3c(c2)c2c(n3C)CC3CCC2N3)c1.Cl (centres unmarked) [Example 66, 2-[1-(5-Methoxy)-indole]sulfonyl-5-methyl-5,6,7,8,9,10-hexahydro-7,10-epiminocyclohepta[b]indole hydrochloride] |  | 206 to 209 °C | 
25 | Cl.Cn1c2c(c3cc(S(=O)(=O)n4cc(Cl)c5ccccc54)ccc31)C1CCC(C2)N1 (centres unmarked) [Example 67, 2-[1-(3-Chloro)-indole]sulfonyl-5-methyl-5,6,7,8,9,10-hexahydro-7,10-epiminocyclohepta[b]indole hydrochloride] | 4.1 nM | 204 to 206 °C | 
26 | Cc1cc(S(=O)(=O)c2cccc(F)c2)cc2c3c(n(C)c12)CC1CCC3N1.Cl (centres unmarked) [Example 72, 2-(3-Fluorophenyl)sulfonyl-4,5-dimethyl-5,6,7,8,9,10-hexahydro-7,10-epiminocyclohepta[b]indole hydrochloride] |  | 254 to 256 °C | 
27 | Cc1cc(S(=O)(=O)c2cccc(Cl)c2)cc2c3c(n(C)c12)CC1CCC3N1.Cl (centres unmarked) [Example 73, 2-(3-Chloro-phenyl)sulfonyl-4,5-dimethyl-5,6,7,8,9,10-hexahydro-7,10-epiminocyclohepta[b]indole hydrochloride] |  | 227 to 229 °C | 
28 | Cc1cccc(S(=O)(=O)c2cc(C)c3c(c2)c2c(n3C)CC3CCC2N3)c1.Cl (centres unmarked) [Example 74, 2-(3-Methyl-phenyl)sulfonyl-4,5-dimethyl-5,6,7,8,9,10-hexahydro-7,10-epiminocyclohepta[b]indole hydrochloride] |  | 228 to 230 °C | 
29 | Cc1cc(S(=O)(=O)n2ccc3ccccc32)cc2c3c(n(C)c12)CC1CCC3N1.Cl (centres unmarked) [Example 79, 2-[1-Indolesulfonyl]-4,5-dimethyl-5,6,7,8,9,10-hexahydro-7,10-epiminocyclohepta[b]indole] |  | 225 to 228 °C | 
30 | COc1cc(S(=O)(=O)c2ccccc2)cc2c3c(n(C)c12)CC1CCC3N1.Cl (centres unmarked) [Example 83, 2-Phenylsulfonyl-4-methoxy-5-methyl-5,6,7,8,9,10-hexahydro-7,10-epiminocyclohepta[b]indole hydrochloride] |  | 175 to 177 °C | 
31 | CC(C)Oc1cc(S(=O)(=O)c2ccccc2)cc2c3c(n(C)c12)CC1CCC3N1.Cl (centres unmarked) [Example 85, 2-Phenylsulfonyl-4-isopropoxy-5-methyl-5,6,7,8,9,10-hexahydro-7,10-epiminocyclohepta[b]indole hydrochloride] |  | 187 to 189 °C | 
